In patent publication US9393221B2, “Methods and compounds for reducing intracellular lipid storage” (THE GENERAL HOSPITAL CORPORATION, priority 2011, dated 2016):
Where a name gives a salt, the structure may show the parent alone.

System: ATGL-KO iPSCs
Experiment: High throughput iPSC chemical screening, Oil Red O (ORO) lipid accumulation; as to Z-score: test concentration or dose not given here
Type: cell-based, mouse
Conditions: not given

Row | Structure (SMILES) | Z-score
1 | COc1cc2c(c(OC)c1OC)-c1ccc(OC)c(=O)cc1[C@@H](NC(C)=O)CC2 [Colchicine] | 35.6417

Same assay, conditions: glycolytic switch compounds

Row | Structure (SMILES) | Rank in normalized ORO score from screen
2 | CCN(CC)CCOc1ccc(C(=C(Cl)c2ccccc2)c2ccccc2)cc1.O=C(O)CC(O)(CC(=O)O)C(=O)O [Clomiphene citrate (Z,E), reference compound] | 928
3 | Clc1ccc(C(OCCN2CCCCC2)c2ccccc2)cc1 (stereo not drawn) [Cloperastine hydrochloride] | 863
4 | Clc1ccccc1C(c1ccccc1)(c1ccccc1)n1ccnc1 [Clotrimazole] | 37
5 | CN(C)CCC=C1c2ccccc2C=Cc2ccccc21 [Cyclobenzaprine hydrochloride] | 579

Same assay, conditions: normalized ORO level vs DMSO-treated cells; compound present during 7 days differentiation, 96-well; negative = decrease in lipid accumulation

Row | Structure (SMILES) | Z-score
6 | C[N+]12CCC(CC1)C(OC(=O)C(O)(c1ccccc1)c1ccccc1)C2 (stereo not drawn) [Clidinium bromide, reference compound] | −1.8548
7 | Oc1c(I)cc(Cl)c2cccnc12 [Clioquinol] | −1.5195
8 | CCC(=O)O[C@]1(C(=O)CCl)[C@@H](C)C[C@H]2[C@@H]3CCC4=CC(=O)C=C[C@]4(C)[C@@]3(F)[C@@H](O)C[C@@]21C [Clobetasol propionate] | 2.1955
9 | C[C@@H]1C[C@H]2[C@@H]3C[C@H](F)C4=CC(=O)C=C[C@]4(C)[C@@]3(Cl)[C@@H](O)C[C@]2(C)[C@H]1C(=O)COC(=O)C(C)(C)C [Clocortolone pivalate] | 1.217
10 | CC(C)/N=c1\cc2n(-c3ccc(Cl)cc3)c3ccccc3nc-2cc1Nc1ccc(Cl)cc1 [Clofazimine] | −0.5584
11 | CC(C)(Oc1ccc(Cl)cc1)C(=O)O [Clofibric acid] | 2.297
12 | CCN(CC)CCOc1ccc(C(=C(Cl)c2ccccc2)c2ccccc2)cc1.O=C(O)CC(O)(CC(=O)O)C(=O)O [Clomiphene citrate (Z,E), reference compound] | 1.107
13 | Clc1cccc(Cl)c1N=C1NCCN1 [Clonidine hydrochloride] | 0.04408
14 | C[C@@H]1CCC[C@H](C)N1NC(=O)c1ccc(Cl)c(S(N)(=O)=O)c1 [Clopamide] | −0.9945
15 | Clc1ccc(C(OCCN2CCCCC2)c2ccccc2)cc1 (stereo not drawn) [Cloperastine hydrochloride] | 0.7661
16 | C#CCN(C)CCCOc1ccc(Cl)cc1Cl [Clorgyline hydrochloride] | −0.8658
17 | Nc1cc(C(Cl)=C(Cl)Cl)c(S(N)(=O)=O)cc1S(N)(=O)=O [Clorsulon] | −0.1576
18 | Clc1ccccc1C(c1ccccc1)(c1ccccc1)n1ccnc1 [Clotrimazole] | −1.6708
19 | Cc1onc(-c2ccccc2Cl)c1C(=O)N[C@@H]1C(=O)N2[C@@H]1SC(C)(C)[C@@H]2C(=O)O [Cloxacillin sodium salt] | −1.0101
20 | CN1CCN(C2=Nc3cc(Cl)ccc3Nc3ccccc32)CC1 [Clozapine] | 0.4154
21 | CCN1C[C@]2(COC)CC[C@H](O)[C@@]34C5C[C@@H]6[C@@H](OC)C[C@](O)(C(CC23)C14)C5[C@H]6OC(C)=O (stereo partly drawn) [Condelphine] | 0.3143
22 | COc1ccc(C(=O)OC2C[C@H]3CC[C@@H](C2)N3C)cc1OC.Cl (stereo partly drawn) [Convolamine hydrochloride] | −1.0829
23 | COc1cc2cc3c4cc(OC)c(OC)cc4cc[n+]3c(C)c2cc1OC.O.[Cl-] [Coralyne chloride hydrate] | 7.275
24 | C[C@]12C[C@H](O)[C@H]3[C@@H](CCC4=CC(=O)CC[C@@]43C)[C@@H]1CC[C@@H]2C(=O)CO [Corticosterone] | −1.2709
25 | C[C@]12CCC(=O)C=C1CC[C@@H]1[C@@H]2C(=O)C[C@@]2(C)[C@H]1CC[C@]2(O)C(=O)CO [Cortisone] | −1.8033
26 | COC(=O)[C@H]1[C@H]2C[C@H]3c4[nH]c5ccccc5c4CCN3C[C@@H]2CC[C@@H]1O.Cl [Corynanthine hydrochloride] | −0.2498
27 | O=C(O)c1cc(=O)c2c(OCC(O)COc3cccc4oc(C(=O)O)cc(=O)c34)cccc2o1 [Cromolyn disodium salt] | −1.7273
28 | CC=CC(=O)N(CC)c1ccccc1C [Crotamiton] | 2.886

Row | Structure (SMILES) | Z-score
29 | CC1(C)S[C@@H]2[C@H](NC(=O)C3(N)CCCCC3)C(=O)N2[C@H]1C(=O)O [Cyclacillin] | 2.402
30 | CN1CCN(C(c2ccccc2)c2ccccc2)CC1 [Cyclizine hydrochloride] | −0.9231
31 | CN(C)CCC=C1c2ccccc2C=Cc2ccccc21 [Cyclobenzaprine hydrochloride] | −0.1421
32 | C[C@@H]1C[C@@H]([C@H](O)CC2CC(=O)NC(=O)C2)C(=O)[C@@H](C)C1 [Cycloheximide] | 56.1385
33 | NS(=O)(=O)c1cc2c(cc1Cl)NC(CC1CCCC1)NS2(=O)=O (stereo not drawn) [Cyclopenthiazide] | −1.4107
34 | CN(C)CCOC(=O)C(c1ccccc1)C1(O)CCCC1 (stereo not drawn) [Cyclopentolate hydrochloride] | 1.252
35 | CN1CCC(=C2c3ccccc3C=Cc3ccccc32)CC1 [Cyproheptadine hydrochloride] | −1.6013
36 | CC(=O)O[C@]1(C(C)=O)CC[C@H]2[C@@H]3C=C(Cl)C4=CC(=O)[C@@H]5C[C@@H]5[C@]4(C)[C@H]3CC[C@@]21C [Cyproterone acetate] | −1.2528
37 | N[C@@H]1CONC1=O [D-cycloserine] | −1.0332
38 | CN(C)/N=N/c1[nH]cnc1C(N)=O [Dacarbazine] | −0.3016
39 | C#C[C@]1(O)CC[C@H]2[C@@H]3CCC4=Cc5oncc5C[C@]4(C)[C@H]3CC[C@@]21C [Danazol] | −1.2973
40 | O=C1CN(/N=C/c2ccc(-c3ccc([N+](=O)[O-])cc3)o2)C(O)=N1 [Dantrolene sodium salt] | −0.3347
41 | Nc1ccc(S(=O)(=O)c2ccc(N)cc2)cc1 [Dapsone] | −0.4061
42 | COc1cccc2c1C(=O)c1c(O)c3c(c(O)c1C2=O)C[C@@](O)(C(C)=O)C[C@@H]3O[C@H]1C[C@H](N)[C@H](O)[C@H](C)O1 [Daunorubicin hydrochloride] | 28.7571
43 | N=C(N)N1CCc2ccccc2C1 [Debrisoquin sulfate] | 0.2228
44 | C[N+](C)(C)CCCCCCCCCC[N+](C)(C)C [Decamethonium bromide] | −0.0864
45 | CC(=O)N(O)CCCCCNC(=O)CCC(=O)N(O)CCCCCNC(=O)CCC(=O)N(O)CCCCCN [Deferoxamine mesylate] | 12.8786
46 | C[C@H](CCC(=O)O)[C@H]1CC[C@H]2[C@@H]3C(=O)C[C@@H]4CC(=O)CC[C@]4(C)[C@H]3CC(=O)[C@]12C [Dehydrocholic acid] | −1.006
47 | CC(=O)O[C@H]1CC[C@@]2(C)C(=CC[C@@H]3[C@@H]2CC[C@]2(C)C(=O)CC[C@@H]32)C1 [Dehydroisoandosterone 3-acetate] | −0.697
48 | CCN1C[C@]2(COC)CC[C@H](OC)[C@]34C5C[C@@H]6[C@@H](OC)C[C@@]7(OCO[C@@]7(C13)[C@@H](O)C24)C5[C@H]6OC (stereo partly drawn) [Delcorine] | −1.4115
49 | CCN1C[C@]2(COC)CC[C@H](O)[C@]34C1[C@@](O)([C@@H](OC)[C@H]23)[C@@]1(O)C[C@H](OC)[C@H]2C[C@@H]4[C@@H]1[C@H]2OC [Delsoline] | −1.3301
50 | CCN1C[C@]2(C)CC[C@H](OC)[C@@]34C1[C@]1(OCO[C@@]15C[C@H](OC)[C@H]1C[C@]3(O)[C@@H]5[C@H]1OC)[C@@H](OC(C)=O)[C@H]24 [Deltaline] | −1.2966
51 | CN(CCCCCCCCCCN(C)C(=O)Oc1cccc([N+](C)(C)C)c1)C(=O)Oc1cccc([N+](C)(C)C)c1 [Demecarium bromide] | −0.6009

Row | Structure (SMILES) | Z-score
52 | CN(C)[C@@H]1C(O)=C(C(N)=O)C(=O)[C@@]2(O)C(O)=C3C(=O)c4c(O)ccc(Cl)c4[C@@H](O)[C@H]3C[C@@H]12 [Demeclocycline hydrochloride] | 1.787
53 | CC[N+](CC)(CC(=O)Nc1c(C)cccc1C)Cc1ccccc1 [Denatonium benzoate] | −0.1971
54 | C[C@]12CC[C@H]3[C@@H](CCC4=CC(=O)CC[C@@]43C)[C@@H]1CC[C@@H]2C(=O)CO [Deoxycorticosterone] | 0.6523
55 | Cc1cc(N)c2ccccc2[n+]1CCCCCCCCCC[n+]1c(C)cc(N)c2ccccc21 [Dequalinium dichloride] | 42.6725
56 | CNCCCN1c2ccccc2CCc2ccccc21 [Desipramine hydrochloride] | 0.2168
57 | CC(=O)OCC(=O)[C@@]1(O)[C@H](C)C[C@H]2[C@@H]3CCC4=CC(=O)C=C[C@]4(C)[C@@]3(F)[C@@H](O)C[C@@]21C [Dexamethasone acetate] | −1.3076
58 | CC1=NS(=O)(=O)c2cc(Cl)ccc2N1 [Diazoxide] | 0.5969
59 | CCCCOc1cc(C(=O)NCCN(CC)CC)c2ccccc2n1 [Dibucaine] | 0.2274
60 | NS(=O)(=O)c1cc(Cl)c(Cl)c(S(N)(=O)=O)c1 [Dichlorphenamide] | 0.1624
61 | O=C(O)Cc1ccccc1Nc1c(Cl)cccc1Cl [Diclofenac sodium] | −1.137
62 | Cc1onc(-c2c(Cl)cccc2Cl)c1C(=O)N[C@@H]1C(=O)N2[C@@H]1SC(C)(C)[C@@H]2C(=O)O [Dicloxacillin sodium salt] | −0.1893
63 | O=c1oc2ccccc2c(O)c1Cc1c(O)c2ccccc2oc1=O [Dicumarol] | 1.966
64 | CCN(CC)CCOC(=O)C1(C2CCCCC2)CCCCC1 [Dicyclomine hydrochloride, reference compound] | −2.1533
65 | C/C=C(/C(=C/C)c1ccc(O)cc1)c1ccc(O)cc1 [Dienestrol] | 0.1268
66 | CCN(CC)C(=O)N1CCN(C)CC1 [Diethylcarbamazine citrate] | −1.1872
67 | CC/C(=C(/CC)c1ccc(O)cc1)c1ccc(O)cc1 [Diethylstilbestrol] | −0.977
68 | CC(=O)OCC(=O)[C@@]1(OC(C)=O)[C@@H](C)C[C@H]2[C@@H]3C[C@H](F)C4=CC(=O)C=C[C@]4(C)[C@@]3(F)[C@@H](O)C[C@@]21C [Diflorasone Diacetate] | 0.6842
69 | O=C(O)c1cc(-c2ccc(F)cc2F)ccc1O [Diflunisal] | −0.3972
70 | C[C@]12CC[C@H](O)C[C@H]1CC[C@@H]1[C@@H]2CC[C@]2(C)[C@@H](C3=CC(=O)OC3)CC[C@]12O [Digitoxigenin] | −0.9264
71 | C[C@]12CC[C@H](O)C[C@H]1CC[C@@H]1[C@@H]2C[C@@H](O)[C@]2(C)[C@@H](C3=CC(=O)OC3)CC[C@]12O [Digoxigenin] | −1.0521
72 | C[C@H]1O[C@@H](O[C@H]2[C@@H](O)C[C@H](O[C@H]3[C@@H](O)C[C@H](O[C@H]4CC[C@@]5(C)[C@H](CC[C@@H]6[C@@H]5C[C@@H](O)[C@]5(C)[C@@H](C7=CC(=O)OC7)CC[C@]65O)C4)O[C@@H]3C)O[C@@H]2C)C[C@H](O)[C@@H]1O [Digoxin] | −0.815
